Data published in patent US12440496B2, “Natriuretic peptide receptor a agonists useful for the treatment of cardiometabolic diseases, kidney disease and diabetes” (Merck Sharp & Dohme LLC, priority 2019, dated 2025).

Molecular target: T1, hNPRA (Homo sapiens, UniProt P16066)
T1 construct: expressed in transfected cells
T1 sequence (P16066 33-1061): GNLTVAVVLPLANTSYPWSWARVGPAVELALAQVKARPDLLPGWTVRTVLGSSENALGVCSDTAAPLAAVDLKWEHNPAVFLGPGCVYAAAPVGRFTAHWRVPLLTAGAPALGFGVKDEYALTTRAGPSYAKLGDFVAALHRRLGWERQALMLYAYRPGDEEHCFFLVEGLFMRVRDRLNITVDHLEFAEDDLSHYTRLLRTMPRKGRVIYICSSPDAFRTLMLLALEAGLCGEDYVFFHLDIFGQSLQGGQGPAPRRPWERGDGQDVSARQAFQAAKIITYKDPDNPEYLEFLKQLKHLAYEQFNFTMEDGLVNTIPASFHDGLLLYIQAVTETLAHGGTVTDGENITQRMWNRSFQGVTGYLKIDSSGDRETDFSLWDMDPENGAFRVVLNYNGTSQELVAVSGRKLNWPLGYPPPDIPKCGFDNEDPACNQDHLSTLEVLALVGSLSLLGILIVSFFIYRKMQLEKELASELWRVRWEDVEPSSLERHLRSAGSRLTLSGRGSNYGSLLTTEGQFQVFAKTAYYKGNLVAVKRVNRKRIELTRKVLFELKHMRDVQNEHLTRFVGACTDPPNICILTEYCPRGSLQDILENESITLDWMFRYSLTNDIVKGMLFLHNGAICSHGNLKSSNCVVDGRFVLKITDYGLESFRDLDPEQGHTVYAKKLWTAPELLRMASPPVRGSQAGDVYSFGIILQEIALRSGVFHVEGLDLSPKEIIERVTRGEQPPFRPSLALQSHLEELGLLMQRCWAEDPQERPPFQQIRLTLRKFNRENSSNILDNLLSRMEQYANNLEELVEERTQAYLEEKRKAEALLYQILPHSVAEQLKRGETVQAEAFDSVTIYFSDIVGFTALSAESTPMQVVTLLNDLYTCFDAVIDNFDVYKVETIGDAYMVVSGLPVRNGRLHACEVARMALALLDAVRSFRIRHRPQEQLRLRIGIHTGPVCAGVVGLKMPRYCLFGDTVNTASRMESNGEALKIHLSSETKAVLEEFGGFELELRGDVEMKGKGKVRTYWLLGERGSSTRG
Assay: NPRA Functional Cell Assay (cGMP HTRF, NPRA HEK JumpIn stable cells)
Type: cell-based
Settings: cGMP production, 1 hour at 37° C., 10-point dose response
Procedure, shortened: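 cGMP HTRF read-out after 1 hour compound treatment at 37° C. of human NPRA-expressing HEK JumpIn cells, 1500 cells/well, in buffer with phosphodiesterase inhibitors IBMX and RO20 (100 uM each). Signal converted to [cGMP] by calibration curve; EC50s fitted by 4-parameter logistic; 50 nM h-ANP as positive response.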

Compound	EC50
CC(C)(C)[C@H]1CCc2nc3sc(C(=O)N[C@H](CCN4C[C@@H](O)[C@H](O)C4)c4ccc(-c5ccc(=O)[nH]c5)cc4)cc3cc2C1 (racemic) [Example 51, rac-(6S)-6-tert-butyl-N-[rac-(1R)-1-[4-(6-oxo-1H-pyridin-3-yl)phenyl]-3-[rac-(3R,4R)-3,4-dihydroxypyrrolidin-1-ium-1-yl]propyl]-5,6,7,8-tetrahydrothieno[2,3-b]quinoline-2-carboxamide;formate]	0.705 µM
CN(C)[C@H]1CN(CC[C@@H](NC(=O)c2cc3cc4c(nc3s2)CC[C@H](C(C)(C)C)C4)c2ccc(-c3ccc(=O)[nH]c3)cc2)C[C@@H]1O (racemic) [Example 70, rac-(6S)-6-tert-butyl-N-[rac-(1R)-1-[4-(6-oxo-1H-pyridin-3-yl)phenyl]-3-[rac-(3S,4S)-3-(dimethylamino)-4-hydroxy-pyrrolidin-1-ium-1-yl]propyl]-5,6,7,8-tetrahydrothieno[2,3-b]quinoline-2-carboxamide;formate]	1.97 µM
CN(C)CC[C@@H](NC(=O)c1nc2cc3c(nc2s1)CC[C@H](C(C)(C)C)C3)c1cccc(C(=O)N2CCNCC2)c1 (racemic) [Example 97, rac-(7S)-7-tert-butyl-N-[rac-(1R)-3-(dimethyl-amino)-1-[3-(piperazine-1-carbonyl)phenyl]propyl]-5,6,7,8-tetrahydrothiazolo[5,4-b] quinoline-2-carboxamide]	1.39 µM
COC(=O)C1CN(C(=O)c2cccc([C@@H](CCN3CCC(O)CC3)NC(=O)c3nc4cc5c(nc4s3)CC[C@H](C(C)(C)C)C5)c2)CCO1 (mixture of isomers) [Example 160, methyl 4-[3-[rac-(1R)-3-(4-hydroxy-1-piperidyl)-1-[[rac-(7S)-7-tert-butyl-5,6,7,8-tetrahydrothiazolo[5,4-b]quinoline-2-carbonyl]amino]propyl]benzoyl]morpholine-2-carboxylate]	1.21 µM
CC(C)(C)[C@H]1CCc2nc3sc(C(=O)N[C@H](CCN4CCC(C#N)CC4)c4ccc(-c5ccc(=O)[nH]c5)cc4)cc3cc2C1 (racemic) [Example 68, rac-(6S)-6-tert-butyl-N-[rac-(1R)-3-(4-cyanopiperidin-1-ium-1-yl)-1-[4-(6-oxo-1H-pyridin-3-yl)phenyl]propyl]-5,6,7,8-tetrahydrothieno[2,3-b]quinoline-2-carboxamide;formate]	1.81 µM
CC(C)(C)[C@@H]1CCc2nc3sc(C(=O)N[C@H](CCN4CCC(c5nn[nH]n5)CC4)c4ccc(-c5cnc(O)c(F)c5)cc4)nc3cc2C1 [Example 271, (R)-N-((R)-3-(4-(2H-tetrazol-5-yl)piperidin-1-yl)-1-(4-(5-fluoro-6-hydroxypyridin-3-yl)phenyl)propyl)-7-(tert-butyl)-5,6,7,8-tetrahydrothiazolo[5,4-b]quinoline-2-carboxamide]	1.1 µM
CC(C)(C)[C@H]1CCc2nc3sc(C(=O)N[C@H](CCN4CCCCC4)c4ccc(-c5cn[nH]c5)cc4)cc3cc2C1 (racemic) [Example 5, rac-(6S)-6-tert-butyl-N-[rac-(1R)-3-(1-piperidy])-1-[4-(1H-pyrazol-4-yl)phenyl]propyl]-5,6,7,8-tetrahydrothieno[2,3-b]quinoline-2-carboxamide]	0.777 µM
CC(C)(C)[C@H]1CCc2nc3sc(C(=O)N[C@H](CCNC4CCNC(=O)C4)c4ccc(-c5ccc(=O)[nH]c5)cc4)cc3cc2C1 (mixture of isomers) [Example 54, (2-oxo-4-piperidyl)-[rac-(3R)-3-[4-(6-oxo-1H-pyridin-3-yl)phenyl]-3-[rac-(6S)-6-tert-butyl-5,6,7,8-tetrahydrothieno[2,3-b]quinoline-2-carbonyl]amino]propyl] ammonium;formate]	0.758 µM

Now from value to compound:

EC50	Compound
0.666 µM	CC(C)(C)[C@H]1CCc2nc3sc(C(=O)N[C@H](CCN4CCC(O)CC4)c4ccc(-c5c[nH]nc5C(F)(F)F)cc4)nc3cc2C1 (racemic) [Example 167, rac-(7S)-7-tert-butyl-N-[rac-(1R)-3-(4-hydroxypiperidin-1-ium-1-yl)-1-[4-[3-(trifluoromethyl)-1H-pyrazol-4-yl]phenyl]propyl]-5,6,7,8-tetrahydrothiazolo[5,4-b]quinoline-2-carboxamide; 2,2,2-trifluoroacetate]
0.686 µM	CC(C)(C)[C@H]1CCc2nc3sc(C(=O)N[C@H](CCN4CCC(O)CC4)c4cccc(C(=O)NCC5CCNC5)c4)nc3cc2C1 (mixture of isomers) [Example 152, rac-(7S)-7-tert-butyl-N-[rac-(1R)-3-(4-hydroxy-1-piperidyl)-1-[3-(pyrrolidin-3-ylmethylcarbamoyl)phenyl]propyl]-5,6,7,8-tetrahydrothiazolo[5,4-b]quinoline-2-carboxamide]
0.258 µM	CN1CCC(NC(=O)c2cccc([C@@H](CCN3CCC(O)CC3)NC(=O)c3nc4cc5c(nc4s3)CC[C@H](C(C)(C)C)C5)c2)CC1 (racemic) [Example 141, rac-(7S)-7-tert-butyl-N-[rac-(1R)-3-(4-hydroxy-1-piperidy1)-1-[3-[(1-methyl-4-piperidyl)carbamoyl]phenyl]propyl]-5,6,7,8-tetrahydrothiazolo[5,4-b]quinoline-2-carboxamide]
0.071 µM	CC(C)[C@]1(F)CCc2nc3sc(C(=O)N[C@H](CCN4CCC(O)CC4)c4ccc(N5CCOCS5(=O)=O)nc4)nc3cc2C1 [Example 217, (S)-N-((R)-1-(6-(3,3-dioxido-1,3,4-oxathiazinan-4-yl)pyridin-3-yl)-3-(4-hydroxypiperidin-1-yl)propyl)-7-fluoro-7-isopropyl-5,6,7,8-tetrahydrothiazolo[5,4-b]quinoline-2-carboxamide]
0.183 µM	CN(C)CC[C@@H](NC(=O)c1nc2cc3c(nc2s1)CC[C@H](C(C)(C)C)C3)c1cccc(C(=O)NC2CN(C)C2)c1 (racemic) [Example 86, rac-(7S)-7-tert-butyl-N-[rac-(1R)-3-(dimethyl-amino)-1-[3-[(1-methylazetidin-3-yl)carbamoyl]phenyl]propyl]-5,6,7,8-tetrahydrothiazolo[5,4-b] quinoline-2-carboxamide]
0.526 µM	CN1CC(NC(=O)c2cccc([C@@H](CCN3CCC(c4cccc(C(=O)O)c4)CC3)NC(=O)c3nc4cc5c(nc4s3)CC[C@H](C(C)(C)C)C5)c2)C1 (racemic) [Example 107, 3-[1-[rac-(3R)-3-[3-[(1-methylazetidin-1-ium-3-yl)carbamoyl]phenyl]-3-[rac-(7S)-7-tert-butyl-5,6,7,8-tetrahydrothiazolo[5,4-b]quinoline-2-carbonyl]amino]propyl]-4-piperidyl]benzoic acid; 2,2,2-trifluoroacetate]
0.634 µM	CC(C)(C)[C@H]1CCc2nc3sc(C(=O)N[C@H](CCNC4CCOCC4)c4ccc(-c5ccc(=O)[nH]c5)cc4)nc3cc2C1 (racemic) [Example 75, rac-(7S)-7-tert-butyl-N-[rac-(1R)-1-[4-(6-oxo-1H-pyridin-3-yl)phenyl]-3-(tetrahydropyran-4-ylamino)propyl]-5,6,7,8-tetrahydrothiazolo[5,4-b]quinoline-2-carboxamide]
0.69 µM	CN(C)CC[C@@H](NC(=O)c1nc2cc3c(nc2s1)CC[C@H](C(C)(C)C)C3)c1cccc(C(=O)NCCO)c1 (racemic) [Example 95, rac-(7S)-7-tert-butyl-N-[rac-(1R)-3-(dimethylamino)-1-[3-(2-hydroxyethylcarbamoyl)phenyl]propyl]-5,6,7,8-tetrahydrothiazolo[5,4-b] quinoline-2-carboxamide]
